Test system: rats with controlled cortical impact (CCI) injury
Assay: Cortical contusion volume, cresyl violet staining
Format: in vivo, rat
Method: A previously described CCI injury procedure was utilized (Chen et al., 2003). Male Sprague-Dawley rats, which have body weight of 250-300 g, were anaesthetized with sodium pentobarbital (i.p.; 50 mgkg^−1; Rhone Merieux, Harlow, UK) and placed in a stereotaxic frame. A 5-mm craniotomy was performed over the left parietal cortex, centered on the coronal suture and 3 mm lateral to the sagittal suture. Considerable care was taken to avoid injury to the underlying dura. Injury was made using a pneumatic piston with a rounded metal tip (2.5 mm diameter) that was angled 22.5° C. to the vertical so that the tip was perpendicular with the brain surface at the centre of the craniotomy. A velocity of 4 ms^−1 and a deformation depth 2 mm below the dura were used. The bone flap was immediately replaced and sealed, and the scalp was closed with sutures. Body temperature was monitored throughout the surgery by a rectal probe; temperature was maintained at 37.0±0.5° C. using a heated pad. Rats were placed in a heated cage to maintain body temperature, while recovering from anaesthesia. Baicalein (30 mg kg^−1) dissolved in 10% dimethyl sulphoxide (0.25-0.3 mL) or a corresponding volume of vehicle (10% dimethyl sulphoxide) was administered i.p. immediately following injury or daily for 4 days (immediately, 25, 49 and 73 h) after injury. Behaviour testing using the rotarod, tactile adhesive removal, mNSS and beam walk tests was performed at 28 hours as well as 4, 7, 14, 21 and 28 days post-injury. At 14 and 28 days, the animals were killed, perfused intravascularly and their brains were processed with cresyl violet staining to assess contusion volume (n=8 for each group). […] Following with terminal anaesthesia, rats were killed by transcardial perfusion first with phosphate-buffered saline (PBS) and then with 4% paraformaldehyde and their tissues were processed on day 1 (for FJB staining and cytokine immunohistochemistry), day 14 (for cresyl violet histology) and day 28 (for cresyl violet histology), post-injury. All solutions were maintained at pH 7.4 and 4° C. Brains were removed and post-fixed in 4% paraformaldehyde overnight and transferred to PBS containing 30% sucrose and 0.1% sodium azide, manufactured by Sigma Chemical Co. located at St Louis, Mo., USA, for cryoprotection. Coronal sections were cut in a cryostat at […] from the level of the olfactory bulbs to the visual cortex. Every 50th slice was used for cresyl violet histology, FJB staining or immunohistochemistry. The distance between similarly stained sections within each group was thus […], with approximately 20 sections per group. […] To measure contusion volumes, cresyl violet-stained sections were digitized and analyzed using a ×1.5 objective and computer image analysis system (Scion Image, Beta Release 4.0.2; Scion Corp., Frederick, Md., USA). […] Contusion area was calculated from all images of cresyl violet-stained sections that contained contused brain; volume measurement was computed by summation of areas multiplied by interslice distance (500 μm).

O=c1cc(-c2ccccc2)oc2cc(O)c(O)c(O)c12 [baicalein]
contusion volume, single-dose versus multiple-dose groups (30 mg kg^-1 i.p., days 14 and 28, P>0.05): no significant difference
reduction of contusion volume versus vehicle (multiple doses 30 mg kg^-1 i.p. daily for 4 days, 14 days post-injury): 42%
reduction of contusion volume versus vehicle (multiple doses 30 mg kg^-1 i.p. daily for 4 days, 28 days post-injury): 42%
reduction of contusion volume versus vehicle (single dose 30 mg kg^-1 i.p., 14 days post-injury): 32%
reduction of contusion volume versus vehicle (single dose 30 mg kg^-1 i.p., 28 days post-injury): 34%
